Data on 15 compounds can be found in patent publication US20020143064A1, “Novel use of compounds of the chalcones class” (priority 2000, published 2002).

This assay has as its system HDMEC cells (Human Dermal Microvascular Endothelial Cells). Put plainly: Detachment of endothelial cells in vitro (HDMEC detachment test). Type of assay: cell-based. As to conditions: Endothelial cell, 2 h, 1 μM compound, two hours treatment, plates precoated with fibronectin, vitronectin or gelatin, calcein fluorescence, relative to untreated control, mean of six samples, >=15% regarded as significant, read-out: Percentage of detachment of HDMEC cells induced by 1 μM of compound. The protocol:
A test for the determination of the detachment of endothelial cells has been developed in order to select products with respect to their “in vitro” activity. Such test was employed in the present invention. By way of this test, the endothelial cells were inoculated in plates, the bottom of which were covered with at least one binding agent, for example, chosen from gelatin, fibronectin, and vitronectin. The inoculated endothelial cells were then cultured. The cultured endothelial cells were treated with a medium comprising the test compound. The cells were then labeled with a fluorescent substance. The detached cells were removed by washing; and the fluorescence of the remaining cells was counted with a fluorimeter.
This test measures the detachment of endothelial cells cultured on substrata based on at least one binding agent, for example, chosen from fibronectin, vitronectin, and gelatin. Generally, one day after the cells were seeded in plates, which comprised, for example, 96 wells, the culture medium was replaced by a medium, which comprised the test compound in the absence of serum. The same preparation was prepared six times at three different concentrations ([…]) and the control was prepared six times without addition of antivascular product. After the cells were treated for two hours with the test substance, the cells were labeled with calcein AM (1.6 μg/ml) in culture medium supplemented with 0.1% of BSA. The cells that detached were removed by washing with culture medium comprising 0.1% of bovine serum albumin. 100 μl of medium were then added to each well. The fluorescence of the remaining cells was counted with a fluorimeter. The data obtained is expressed with respect to the control (untreated cells).
The evaluation of the detachment of endothelial cells in vitro was determined in the following way: HDMEC cells (Human Dermal Microvascular Endothelial Cells, Promocell, c-122102) were cultured in an ECGM-MV medium which comprised 5% of foetal calf serum, growth factors (EGF 10 ng/ml, hydrocortisone 1 μg/ml, 0.4% growth supplement with heparin) and antibiotics (amphotericin 50 ng/ml, gentamicin 50 μg/ml). For the detachment test, the HDMECs were inoculated at 5000 cells in clear-bottomed 96-well plates (Costar) precoated with fibronectin (10 μg/ml) or vitronectin (1 μg/ml) or gelatin. Twenty four hours later, the culture medium was replaced with ECGM-MV 0.1% BSA medium comprising the products shown. The concentrations tested were 0.1, 0.3 and 1 μM for each product. After treating for two hours, the cells were labeled for one hour with calcein (1.6 μg/ml, Molecular Probes) in ECGM-MV 0.1% BSA medium. The detached cells were subsequently removed by washing with ECGM-MV 0.1% BSA medium; 100 μl of medium was added to each well. The fluorescence of the cells which remained attached to the substratum of the well were counted using a fluorimeter, Spectrafluor Plus (Tecan, excitation 485 nm and emission 535 nm).
A cell detachment effect of greater than or equal to 15% is regarded as significant.

Turning to `COc1ccc(OC)c(C(=O)/C=C/c2ccc(NC(C)=O)cc2)c1` [Comparative Example 1, reference compound], the inhibition at 1 µM is 2%.

As to `CCCCNc1ccc(/C=C(\C)C(=O)c2cc(OC)c(OC)c(OC)c2)cc1` [Comparative Example 2, reference compound], the inhibition at 1 µM is 6%.

As for `COc1ccc(OC)c(C(=O)/C(C)=C/c2ccc(N(C)C)cc2)c1` [Example 1], the inhibition at 1 µM was 23 to 49%.

For `CCN(CC)c1ccc(/C=C(\C)C(=O)c2cc(OC)ccc2OC)cc1` [Example 2], the inhibition at 1 µM was 20 to 23%.

Consider `COc1ccc(OC)c(C(=O)/C(Cl)=C/c2ccc(N(C)C)cc2)c1` [Example 3], for which the inhibition at 1 µM was 25 to 29%.

As for `COc1ccc(OC)c(C(=O)/C=C/c2ccc(N(C)C)cc2)c1` [Example 4], the inhibition at 1 µM is 18 to 19%.

On to `COc1cc(C(=O)/C(C)=C/c2ccc(N(C)C)cc2)cc(OC)c1OC` [Example 5], for which the inhibition at 1 µM is 15%.

For `CCN(CC)c1ccc(/C=C(\C)C(=O)c2ccc(OC)c(OC)c2OC)cc1` [Example 6], the inhibition at 1 µM was 35 to 41%.

As for `COc1ccc(C(=O)/C(Cl)=C/c2ccc(N(C)C)cc2)c(OC)c1OC` [Example 7], the inhibition at 1 µM is 22 to 42%.

For `COc1cc(C(=O)/C(Cl)=C/c2ccc(N(C)C)cc2)cc(OC)c1OC` [Example 8], the inhibition at 1 µM is 23 to 43%.

As to `CCN(CC)c1ccc(/C=C/C(=O)c2ccc(OC)c(OC)c2OC)cc1` [Example 9], the inhibition at 1 µM is 19%.

As to `CC/C(=C\c1ccc(N(C)C)cc1)C(=O)c1ccc(OC)c(OC)c1OC` [Example 10], the inhibition at 1 µM is 15%.

With `CCN(CC)c1ccc(/C=C/C(=O)c2cc(OC)c(OC)c(OC)c2)cc1` [Example 11], the inhibition at 1 µM is 20%.

Turning to `COc1ccc(C(=O)/C(Br)=C/c2ccc(N(C)C)cc2)c(OC)c1OC` [Example 13], the inhibition at 1 µM is 23 to 34%.

Turning to `COc1ccc(C(=O)/C=C/c2ccc(N(C)C)cc2)c(OC)c1OC` [Example 14], the inhibition at 1 µM is 18 to 20%.
